Where “and” joins values, the source holds several entries; their conditions need not be identical. Identical values can stand only once. After the bases stand the sugars from the 5' end (letter, count) and the backbone: PS all phosphorothioate, else s phosphorothioate and o phosphodiester by linkage. Methylation of C is not given here. e = 2'-O-(2-methoxyethyl) (MOE); k = constrained ethyl (cEt); d = 2'-deoxy (DNA)
Key:
KRAS = details: ASO
IRF5 = details: ASO

Sequence	target mRNA inhibition (KRAS; A431, 2 µM)	other results
CAGTGTGACTCAGTTA (sugars k3 d9 k3 e1, PS)	42%	
TGTCTATTCATACCAG (sugars k3 d10 k3, PS)	16%	
ACTCTCTATGAAAGCT (sugars k3 d10 k3, PS)	29%	
TGCAGTGTGACTCAGT (sugars k3 d10 k3, PS)	55%	
GTCCAGTGATACTTTC (sugars kdddddddddkekeke, PS)	20%	
AGGAGTCTTTATAGTA (sugars kkddddddddddkeke, PS)	40%	
TCTTATGGTTAGGGGA (sugars k3 d10 k3, PS)	8%	
AGATTGTGCTGAGCTT (sugars kkkddddddddkdkdk, PS)	42%	
TCTGTCTATTCATACC (sugars k3 d10 k3, PS)	12%	
AGTGTTTATGCAATGT (sugars k3 d10 k3, PS)	69% and 50%	target mRNA inhibition (KRAS; A431, 0.185 µM): 27% and 9%; target mRNA inhibition (KRAS; A431, 0.556 µM): 46% and 21%; target mRNA inhibition (KRAS; A431, 1.667 µM): 65% and 46%; target mRNA inhibition (KRAS; A431, 5 µM): 83% and 67%
ACCATTCAAAGTTCAC (sugars kddddddddddkekek, PS)	18%	
TAGTTTCCATTGCCTT (sugars k3 d10 k3, PS)	16%	
AAAACAAATGCTAATA (sugars k3 d10 k3, PS)	12%	
CCAGTGTTAAGAGAAC (sugars kkkddddddddkekek, PS)	37%	
TAAAACAAATGCTAAT (sugars k3 d10 k3, PS)	5%	
TTAGGGGAATTACAAG (sugars k3 d10 k3, PS)	23%	
ATTGTGCTGAGCTTGA (sugars kddddddddddkekek, PS)	34%	
CTTGATTTGTCAGCAG (sugars kkdddddddddkekek, PS)	49%	
GCAAGATGACACTAAT (sugars k3 d10 k3, PS)	30%	
TCCAGTGATACTTTCA (sugars kkddddddddkekekk, PS)	24%	
TGATTTGTCAGCAGGA (sugars kdddddddddkekeke, PS)	32%	
AATTGTGCAATGGTGA (sugars k3 d10 k3, PS)	46%	

Sequence	target mRNA inhibition (KRAS; A431, 2 µM)	other results
TGTTTATGCAATGTTA (sugars kkddddddddkekekk, PS)	56%	target mRNA inhibition (KRAS; A431, 0.185 µM): 22%; target mRNA inhibition (KRAS; A431, 0.556 µM): 47%; target mRNA inhibition (KRAS; A431, 1.667 µM): 68%; target mRNA inhibition (KRAS; A431, 5 µM): 76%
GATTGTGCTGAGCTTG (sugars kkddddddddddkeke, PS)	19%	
ATTGTGCTGAGCTTGA (sugars kkddddddddkekekk, PS)	31%	
AAATGCTAATAATTTA (sugars k3 d10 k3, PS)	13%	
GTCCAGTGATACTTTC (sugars k3 d10 k3, PS)	44%	
GGTGTAACATAGGTTA (sugars kddddddddddkekek, PS)	64%	target mRNA inhibition (KRAS; A431, 0.185 µM): 15%; target mRNA inhibition (KRAS; A431, 0.556 µM): 39%; target mRNA inhibition (KRAS; A431, 1.667 µM): 62%; target mRNA inhibition (KRAS; A431, 5 µM): 80%
AAATCTGAATTAGTCT (sugars k3 d10 k3, PS)	25%	
AGGAGTCTTTATAGTA (sugars kkkddddddddkdkdk, PS)	30%	
AGTGTGACTCAGTTAA (sugars kkkddddddddkekek, PS)	29%	
GAGGCAAGATGACACT (sugars k3 d10 k3, PS)	0%	
CCAGTGATACTTTCAC (sugars kddddddddddkekek, PS)	0%	
ACCAGTGTTAAGAGAA (sugars k3 d9 k3 e1, PS)	44%	
TGCTGTGAAACTCTCT (sugars kkdddddddddkdkdk, PS)	26%	
AAAATTAATGTCTTGG (sugars k3 d10 k3, PS)	12%	
GTCCAGTGATACTTTC (sugars kkkddddddddkdkdk, PS)	30%	
CAGTGTGACTCAGTTA (sugars kkddddddddkekekk, PS)	63%	target mRNA inhibition (KRAS; A431, 0.185 µM): 0%; target mRNA inhibition (KRAS; A431, 0.556 µM): 36%; target mRNA inhibition (KRAS; A431, 1.667 µM): 58%; target mRNA inhibition (KRAS; A431, 5 µM): 67%
CAAATGCTAATAATTT (sugars k3 d10 k3, PS)	0%	
AGTGATTAGGTCAAAT (sugars k3 d10 k3, PS)	23%	
TTAGTGATTAGGTCAA (sugars kkkdddddddddkeke, PS)	32%	
AGTATTAACACAGAAG (sugars k3 d10 k3, PS)	27%	
TGGTGTAACATAGGTT (sugars kkdddddddddkekek, PS)	62%	target mRNA inhibition (KRAS; A431, 0.185 µM): 21%; target mRNA inhibition (KRAS; A431, 0.556 µM): 45%; target mRNA inhibition (KRAS; A431, 1.667 µM): 66%; target mRNA inhibition (KRAS; A431, 5 µM): 83%
TGCTGTGAAACTCTCT (sugars k3 d10 k3, PS)	27%	

Sequence	target mRNA inhibition (KRAS; A431, 2 µM)	other results
AATCTTTTAATGTCAC (sugars k3 d10 k3, PS)	44%	
TTTAAAAAAAAAATTA (sugars k3 d10 k3, PS)	3%	
ACTTTTTGACAAATGG (sugars k3 d10 k3, PS)	46%	
TGTATCTTGTTGAGCT (sugars k3 d10 k3, PS)	31%	
TTGATTTGTCAGCAGG (sugars kddddddddddkekek, PS)	17%	
GATTTGTCAGCAGGAC (sugars kdddddddddkekeke, PS)	32%	
ACCAGTGTTAAGAGAA (sugars k3 d10 k3, PS)	60%	target mRNA inhibition (KRAS; A431, 0.185 µM): 5% and 3%; target mRNA inhibition (KRAS; A431, 0.556 µM): 39% and 19%; target mRNA inhibition (KRAS; A431, 1.667 µM): 59% and 43%; target mRNA inhibition (KRAS; A431, 5 µM): 72% and 60%
TGGTGTAACATAGGTT (sugars kkkddddddddkekek, PS)	67%	target mRNA inhibition (KRAS; A431, 0.185 µM): 31%; target mRNA inhibition (KRAS; A431, 0.556 µM): 53%; target mRNA inhibition (KRAS; A431, 1.667 µM): 79%; target mRNA inhibition (KRAS; A431, 5 µM): 82%
CTATTCATACCAGGTT (sugars k3 d10 k3, PS)	33%	
TCCAGTGATACTTTCA (sugars kkdddddddddkekek, PS)	37%	
GCTAAAACAAATGCTA (sugars k3 d10 k3, PS)	33%	
TGTGAAACTCTCTATG (sugars k3 d10 k3, PS)	4%	
TATGCAATGTTAATTT (sugars k3 d10 k3, PS)	8%	
GGTGTAACATAGGTTA (sugars kdddddddddkekeke, PS)	57%	target mRNA inhibition (KRAS; A431, 0.185 µM): 1%; target mRNA inhibition (KRAS; A431, 0.556 µM): 35%; target mRNA inhibition (KRAS; A431, 1.667 µM): 56%; target mRNA inhibition (KRAS; A431, 5 µM): 71%; target mRNA inhibition (KRAS; NCI-H460, 0.037 µM): 52.2%
GGTGAATATCTTCAAA (sugars k3 d10 k3, PS)	28%	
AATGCTAATAATTTAG (sugars k3 d10 k3, PS)	0%	
ATCAACTGCATGCACC (sugars k3 d10 k3, PS)	42%	
ATGCTGTGAAACTCTC (sugars kdddddddddkekeke, PS)	24%	
AAAAAATTAATGTCTT (sugars k3 d10 k3, PS)	9%	
ACCAGTGTTAAGAGAA (sugars kkddddddddddkeke, PS)	42%	
GAGTCTTTATAGTAAT (sugars kddddddddddkekek, PS)	11%	
CTCTTGATTTGTCAGC (sugars k3 d10 k3, PS)		target mRNA inhibition (KRAS; A431, 0.037 µM): 66%; target mRNA inhibition (KRAS; A431, 0.125 µM): 64% and 57%; target mRNA inhibition (KRAS; NCI-H460, 0.037 µM): 55.4%

Sequence	target mRNA inhibition (KRAS; A431, 2 µM)	other results
GCAATGTTAATTTAAC (sugars k3 d10 k3, PS)	17%	
CCAGTATTAACACAGA (sugars k3 d10 k3, PS)	37%	
ATGCTGTGAAACTCTC (sugars k3 d9 k3 e1, PS)	37%	
TTAGTGATTAGGTCAA (sugars k3 d10 k3, PS)	59% and 51% and 52%	target mRNA inhibition (KRAS; A431, 0.185 µM): 32%; target mRNA inhibition (KRAS; A431, 0.556 µM): 56%; target mRNA inhibition (KRAS; A431, 1.667 µM): 68%; target mRNA inhibition (KRAS; A431, 5 µM): 82%
AATCTTATGGTTAGGG (sugars k3 d10 k3, PS)	45%	target mRNA inhibition (KRAS; A431, 0.185 µM): 2%; target mRNA inhibition (KRAS; A431, 0.556 µM): 2%; target mRNA inhibition (KRAS; A431, 1.667 µM): 35%; target mRNA inhibition (KRAS; A431, 5 µM): 52%
CATGTAAATATAGCCC (sugars k3 d10 k3, PS)	5%	
TCTTGATTTGTCAGCA (sugars kkddddddddddkeke, PS)	91% and 92%	target mRNA inhibition (KRAS; A431, 0.037 µM): 84%; target mRNA inhibition (KRAS; A431, 0.125 µM): 65% and 61%; target mRNA inhibition (KRAS; NCI-H460, 0.037 µM): 67.6%
ACCAGTGTTAAGAGAA (sugars kddddddddddkekek, PS)	44%	
GGTCTTGACCTCCCGC (sugars k3 d10 k3, PS)		target mRNA inhibition (IRF5; KARPAS-229, 4 µM): 33%
TAGGAGTGAGACGAGC (sugars k3 d10 k3, PS)		target mRNA inhibition (IRF5; KARPAS-229, 4 µM): 1%
GCTGTCACATCTCCAC (sugars kkkddddddddkekek, PS)		target mRNA inhibition (IRF5; KARPAS-229, 4 µM): 0%
CGGTCTTTGAGGTCTG (sugars kkddddddddddkeke, PS)		target mRNA inhibition (IRF5; KARPAS-229, 0.44444 µM): 31%; target mRNA inhibition (IRF5; KARPAS-229, 1.33333 µM): 29%; target mRNA inhibition (IRF5; KARPAS-229, 4 µM): 43% and 46%; target mRNA inhibition (IRF5; KARPAS-229, 12 µM): 57%
CGGTCTTTGAGGTCTG (sugars k3 d10 k3, PS)		target mRNA inhibition (IRF5; KARPAS-229, 4 µM): 32%
GAATTTTGTGACTGTA (sugars k3 d10 k3, PS)		target mRNA inhibition (IRF5; KARPAS-229, 0.44444 µM): 41%; target mRNA inhibition (IRF5; KARPAS-229, 1.33333 µM): 66%; target mRNA inhibition (IRF5; KARPAS-229, 4 µM): 57% and 67%; target mRNA inhibition (IRF5; KARPAS-229, 12 µM): 78%
CCATTCTATGCCTTTT (sugars k3 d9 k3 e1, PS)		target mRNA inhibition (IRF5; KARPAS-229, 0.44444 µM): 31%; target mRNA inhibition (IRF5; KARPAS-229, 1.33333 µM): 44%; target mRNA inhibition (IRF5; KARPAS-229, 4 µM): 58% and 70%; target mRNA inhibition (IRF5; KARPAS-229, 12 µM): 78%
GTTATCTCCGTCCTGG (sugars kdddddddddkekeke, PS)		target mRNA inhibition (IRF5; KARPAS-229, 4 µM): 0%
CCACTGTGTACCCCAT (sugars k2 d8 e4 k2, PS)		target mRNA inhibition (IRF5; KARPAS-229, 4 µM): 44%
GTTATCTCCGTCCTGG (sugars kkddddddddddkeke, PS)		target mRNA inhibition (IRF5; KARPAS-229, 4 µM): 0%
GAGGAAGTGAGTCTCA (sugars k3 d10 k3, PS)		target mRNA inhibition (IRF5; KARPAS-229, 4 µM): 0%
TATTTCTGCTCCAGGT (sugars kkkddddddddkekek, PS)		target mRNA inhibition (IRF5; KARPAS-229, 4 µM): 24%

From the OligoGym collection
